# Measurements published in PubChem BioAssay (NCI).
# Where “and” joins values, the source holds several entries; their conditions need not be identical. Equal values may be shown once.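 The compound was tested at five concentrations on cells cultured in 96-well plates, with a 48-hour exposure period. GI50 = concentration required for 50% inhibition of growth. The concentration for full growth arrest is given as TGI.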
# Experiments:
# Experiment in all cases: growth of human tumour cells (NCI), 48 h
# MDA-MB-231 breast = test system: MDA-MB-231 breast
# HOP-62 NSCLC = test system: HOP-62 NSCLC
# LOX IMVI melanoma = test system: LOX IMVI melanoma
# CCRF-CEM leukemia = test system: CCRF-CEM leukemia
# NCI-H460 lung = test system: NCI-H460 lung
# SK-MEL-2 melanoma = test system: SK-MEL-2 melanoma
# SR leukemia = test system: SR leukemia
# ACHN renal = test system: ACHN renal
# SK-MEL-28 melanoma = test system: SK-MEL-28 melanoma
# COLO 205 colon = test system: COLO 205 colon
SMILES,GI50 (MDA-MB-231 breast) [µM],TGI (MDA-MB-231 breast) [µM],GI50 (HOP-62 NSCLC) [µM],TGI (HOP-62 NSCLC),GI50 (LOX IMVI melanoma) [µM],TGI (LOX IMVI melanoma),GI50 (CCRF-CEM leukemia) [µM],TGI (CCRF-CEM leukemia),GI50 (NCI-H460 lung) [µM],TGI (NCI-H460 lung),GI50 (SK-MEL-2 melanoma) [µM],TGI (SK-MEL-2 melanoma) [µM],GI50 (SR leukemia) [µM],TGI (SR leukemia),GI50 (ACHN renal) [µM],TGI (ACHN renal),GI50 (SK-MEL-28 melanoma) [µM],TGI (SK-MEL-28 melanoma),GI50 (COLO 205 colon) [µM],TGI (COLO 205 colon)
Cn1nccc1Nc1nccc(-c2ccn([C@H](CO)c3ccc(Cl)c(F)c3)c(=O)c2)n1,5.96,> 100,37.8,> 100 µM,3.72,28.1 µM,15.7,> 85.1 µM,38.4,> 100 µM,0.275,27.2,25.1,> 100 µM,25,> 100 µM,0.104,> 100 µM,0.0649,16.7 µM
O=C1C=C[C@H](O)[C@@]2(CO)O[C@@H]12,15.5,30.1,23.7,> 55.2 µM,5.51,19.8 µM,2.7,12.3 µM,26.8,> 66.1 µM,14.6,33.5,4.64,> 100 µM,9.42,22 µM,12.8,25.7 µM,1.84,3.55 µM
COC1N(C2CC(O)C(CO)O2)C(=O)NC(=O)C1(F)Br (centres undefined),–,> 100,8.35,50 µM and > 66.5 µM,4.47,50 µM and > 100 µM,27.6,50 µM and > 75.4 µM,1.51,50 µM and > 100 µM,> 50,> 100,25.1,50 µM and > 100 µM,23.9,50 µM and > 100 µM,30,50 µM and > 100 µM,42.6,50 µM and > 100 µM
Cc1ccc(O)cc1Nc1ccnc2ccc(S(C)(=O)=O)cc12,0.507,4.68,2.35,> 25 µM,0.516,3.89 µM,> 25,> 25 µM,10.5,> 25 µM,6.91,24.9,> 25,> 25 µM,0.612,7.75 µM,1.98,> 25 µM,0.47,2.83 µM
COc1ccc2c(c1)c(-c1nc(-c3c[nH]c4ncccc34)cs1)cn2CCCN1CCOCC1,1.86,4.54,2.24,7.18 µM,1.74,3.27 µM,2.76,8.09 µM,2.54,6.6 µM,1.88,3.77,2.3,7 µM,2.5,8.22 µM,1.95,3.83 µM,1.82,3.8 µM
CCNc1nc(O)c(/C=C2\C=Nc3ncccc32)s1,4.17,> 100,2.27,7.27 µM,3.23,47.5 µM,3.59,> 100 µM,3.93,17.8 µM,3.04,8.93,1.6,> 100 µM,2.58,> 100 µM,2.72,13.8 µM,3.54,13 µM
CCN(C)c1nc(N(C)CC)c2nc(N(C)CC)nc(N(C)CC)c2n1,–,> 100,–,> 100 µM,–,> 100 µM,–,> 100 µM,–,> 100 µM,–,> 100,–,> 100 µM,–,> 100 µM,–,> 100 µM,–,> 100 µM
OC1(c2ccc(Cl)c(C(F)(F)F)c2)CCN(CCCC(c2ccc(F)cc2)c2ccc(F)cc2)CC1,0.795,1.52,0.945,1.7 µM,0.821,1.52 µM,1.04,2.63 µM,1.23,9.05 µM,0.955,1.76,0.831,2 µM,0.87,1.63 µM,0.889,1.58 µM,0.856,1.57 µM
O=C(OCc1ccc2c(Br)cc(Br)c(O)c2n1)c1cc2ccccc2[nH]1,0.963,2.44,1.34,3.47 µM,0.185,0.405 µM,0.293,2.03 µM,1.53,3.33 µM,1.48,3.2,0.43,4.22 µM,0.352,1.27 µM,1.24,2.51 µM,0.511,1.84 µM
